Converted amounts (≈) assume the structure as drawn. Read-outs that look alike come from different tables or passages of the source.
Key:
COX-2 = molecular target: T1, COX-2 (Ovis aries, UniProt P79208); test: COX-2-catalyzed prostaglandin production inhibition; assay type: biochemical, sheep; settings: mean ± standard deviation, three replicas
T1 construct: purchased Cayman Chemical Company, Ann Arbor, MI, USA; host or cells: sheep placenta (tissue)
T1 sequence (P79208 17-603): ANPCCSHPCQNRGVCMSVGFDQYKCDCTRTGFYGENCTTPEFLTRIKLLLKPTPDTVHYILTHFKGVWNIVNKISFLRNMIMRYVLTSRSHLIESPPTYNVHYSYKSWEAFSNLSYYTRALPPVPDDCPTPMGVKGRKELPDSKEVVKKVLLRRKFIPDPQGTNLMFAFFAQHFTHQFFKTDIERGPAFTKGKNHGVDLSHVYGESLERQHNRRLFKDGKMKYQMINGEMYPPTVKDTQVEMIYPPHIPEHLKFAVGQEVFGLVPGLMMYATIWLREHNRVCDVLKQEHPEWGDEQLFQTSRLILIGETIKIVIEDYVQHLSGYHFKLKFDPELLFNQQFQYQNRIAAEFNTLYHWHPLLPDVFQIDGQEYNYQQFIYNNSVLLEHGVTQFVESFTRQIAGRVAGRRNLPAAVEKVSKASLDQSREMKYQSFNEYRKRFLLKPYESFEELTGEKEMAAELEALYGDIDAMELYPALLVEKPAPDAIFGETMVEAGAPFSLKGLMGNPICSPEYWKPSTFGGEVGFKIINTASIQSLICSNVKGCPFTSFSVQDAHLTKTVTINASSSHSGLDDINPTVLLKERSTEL
Protocol: The COX inhibitory effects of the substances were examined using a COX-1/COX-2-catalyzed prostaglandin production test, using a modified approach by Futaki et al.. The chemicals were dissolved in 4% DMSO to a final concentration of 100 µg/mL.
In this test, one unit of COX-1 or COX-2 enzyme was suspended in a 0.1 M Tris-HCl buffer (pH 7.5) containing hematin ([…]) and phenol (2 mM) as cofactors. The COX-1 enzyme was produced from ram seminal vesicles, while COX-2 was taken from sheep placenta with a purity of 70% (both from Cayman Chemical Company, Ann Arbor, MI, USA). The reaction mixture was preincubated with either the solvent vehicle (4% DMSO) or the test solution for 2 min at 37 °C. […] Arachidonic acid, tagged with radioactive carbon ([1–14C]), serves as a substrate for the COX enzymes. The mixture was then incubated for an additional 2 min at 37 °C. […] The organic solvent phase was removed, and the PGE2 level in the remaining aqueous phase was quantified using a radioimmunoassay with a liquid scintillation counter, which measures the radioactivity (disintegrations per minute, DPM) of the [1–14C]-labeled PGE2. The percentage inhibition of COX-catalyzed prostaglandin production by the test compounds was estimated by comparing the radioactivity of the samples with the solvent vehicle controls. […]

MCF-7 cells = settings: ref Seresht et al. (2019) [79], cited from earlier work
ABTS scavenging activity = test: ABTS scavenging activity
From the text: With a few minor adjustments, the procedure published by Re et al., was used to evaluate the test samples’ capacity to scavenge radicals against the ABTS (2,2′-azinobis-3-ethylbenzothiazoline-6-sulphonate) radical cation.

MCF-7 = test: MTT cell viability, MCF-7; assay type: cell-based, Human; settings: Homo sapiens, MCF7; MTT test; 72 h of treatment (Figure 3); read-out: IC50 Value ± SD, MCF-7
Protocol: (§1) These cell lines were selected to represent distinct sub-types of breast cancer for extensive investigation. […] The medium was added with 10% heat-inactivated fetal calf serum (FCS) to supply vital growth hormones and nutrients necessary for cell proliferation. Additionally, 1% penicillin streptomycin was administered to avoid bacterial contamination, ensuring the sterility and integrity of the cell cultures. The cell cultures were maintained at 37 °C in a humidified environment containing 5% CO2. This controlled environment mimics physiological conditions in the human body, supporting optimal cell development and function. The humidified atmosphere prevents medium evaporation, while the 5% CO2 concentration maintains optimal pH values in the culture medium. These specialized circumstances and methods ensure that the breast cancer cell lines remain healthy and viable for experimental procedures, delivering dependable and reproducible results for research projects. The standard protocols followed for cultivating these cells are crucial for generating consistent and reliable data. Using well-characterized cell lines from a credible source like ATCC ensures the re-liability and comparability of the experimental outcomes.
(§2) This approach determines cell viability based on the ability of living cells to decrease MTT to a purple, water-insoluble formazan product. Cells were planted in 96-well plates at a density of 1 × 10^4 cells per well in 100 μL of complete culture media, which provides all necessary nutrients for cell growth. […] The cells were then treated with the compounds for 24, 48, and 72 h to determine the effect on cell viability over varied time intervals. Following each incubation time, 20 μL of MTT solution (at a concentration of 5 mg/mL in PBS) were applied to each well. The plates were further incubated for 4 h at 37 °C, during which time live cells decrease the MTT to formazan, creating purple crystals. At the end of the incubation, the medium containing the MTT was carefully aspirated, leaving only the formazan crystals in the bottom of the wells. […]

MDA-MB-231 = test: MTT cell viability, MDA-MB-231; assay type: cell-based, Human; settings: Homo sapiens, MDA-MB-231; MTT test; 72 h of treatment (Figure 3); read-out: IC50 Value ± SD, MDA-MB-231
Protocol: as §1, §2

- IC50 (COX-2): 177 µM
- ABTS Scavenging Activity IC50 (ABTS scavenging activity): 125.31 ± 6.25 µg/mL
- IC50 (MCF-7): 5.16 ± 0.71 µg/mL (≈ 34.3 µM)
- IC50 (MDA-MB-231): 8.22 ± 0.94 µg/mL (≈ 54.7 µM)
Structure (SMILES): Cc1ccc(C(C)C)c(O)c1 [Thymol, 2-isopropyl-5-methylphenol]
- IC50 on MCF-7 cells (MCF-7 cells; 48 h): 54 µg/mL (≈ 359 µM)
- IC50 on MCF-7 cells (MCF-7 cells; 72 h): 62 µg/mL (≈ 413 µM)

— PMC11355195 (Life, 2024)
